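48-hour exposure; five concentrations; linearly interpolated endpoints. GI50 = concentration required for 50% inhibition of growth.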 Activity calls are given as the source filed them. Rule as the data show it: active = GI50 up to about 1.1 µM and inactive = higher.
Tests used:
Assay in all cases: growth of human tumour cells (NCI), 48 h
A549 = system: A549
CAKI-1 = system: CAKI-1
EKVX = system: EKVX
HCT-116 = system: HCT-116
HCT-15 = system: HCT-15
IGROV-1 = system: IGROV-1
LOX IMVI = system: LOX IMVI
MCF7 = system: MCF7
NCI-H226 = system: NCI-H226
NCI-H522 = system: NCI-H522
OVCAR-3 = system: OVCAR-3
OVCAR-4 = system: OVCAR-4
OVCAR-5 = system: OVCAR-5
RPMI-8226 = system: RPMI-8226
SF-268 = system: SF-268
SK-MEL-28 = system: SK-MEL-28
SK-MEL-5 = system: SK-MEL-5
SNB-75 = system: SNB-75
UACC-257 = system: UACC-257
UO-31 = system: UO-31

## CC1(C)CCCCCC(C)(CCCO)C1=O (stereo not given)
A549
  GI50: > 100 µM (inactive)
CAKI-1
  GI50: > 100 µM (inactive)
EKVX
  GI50: > 100 µM (inactive)
HCT-116
  GI50: > 100 µM (inactive)
HCT-15
  GI50: > 100 µM
IGROV-1
  GI50: > 100 µM (inactive)
LOX IMVI
  GI50: > 100 µM (inactive)
MCF7
  GI50: > 100 µM (inactive)
NCI-H226
  GI50: > 100 µM (inactive)
NCI-H522
  GI50: > 100 µM (inactive)
OVCAR-3
  GI50: > 100 µM (inactive)
OVCAR-4
  GI50: > 100 µM (inactive)
OVCAR-5
  GI50: > 100 µM (inactive)
RPMI-8226
  GI50: > 100 µM (inactive)
SF-268
  GI50: > 100 µM (inactive)
SK-MEL-28
  GI50: > 100 µM (inactive)
SK-MEL-5
  GI50: > 100 µM (inactive)
SNB-75
  GI50: > 100 µM (inactive)
UACC-257
  GI50: > 100 µM (inactive)
UO-31
  GI50: > 100 µM (inactive)

## C[C@H](CN1CC(=O)NC(=O)C1)N1CC(=O)NC(=O)C1
A549
  GI50: > 70.5 µM (inactive)
CAKI-1
  GI50: > 100 µM (inactive)
EKVX
  GI50: 57 µM (inactive)
HCT-116
  GI50: 82.4 µM (inactive)
HCT-15
  GI50: > 76.2 µM
IGROV-1
  GI50: > 100 µM (inactive)
LOX IMVI
  GI50: > 100 µM (inactive)
MCF7
  GI50: 44.2 µM (inactive)
NCI-H226
  GI50: 39 µM (inactive)
NCI-H522
  GI50: 20.8 µM (inactive)
OVCAR-3
  GI50: > 100 µM (inactive)
OVCAR-4
  GI50: > 100 µM (inactive)
OVCAR-5
  GI50: > 100 µM (inactive)
RPMI-8226
  GI50: > 53.2 µM (inactive)
SF-268
  GI50: > 96.2 µM (inactive)
SK-MEL-28
  GI50: > 100 µM (inactive)
SK-MEL-5
  GI50: > 100 µM (inactive)
SNB-75
  GI50: > 100 µM (inactive)
UACC-257
  GI50: > 100 µM (inactive)
UO-31
  GI50: 20 µM (inactive)

## O=C1C2=C(C3=NCCc4c[nH]c1c43)C1(C=C(Br)C(O)C(Br)=C1)CCN2 (stereo not given)
A549
  GI50: 3.15 µM (inactive)
CAKI-1
  GI50: 4.4 µM (inactive)
EKVX
  GI50: 1.07 µM (active)
HCT-116
  GI50: 0.625 µM (active)
HCT-15
  GI50: 1.16 µM
IGROV-1
  GI50: 0.881 µM (active)
LOX IMVI
  GI50: 0.736 µM (active)
MCF7
  GI50: 0.433 µM (active)
NCI-H226
  GI50: 3.4 µM (inactive)
NCI-H522
  GI50: 0.284 µM (active)
OVCAR-3
  GI50: 1.03 µM (active)
OVCAR-4
  GI50: 1.47 µM (inactive)
OVCAR-5
  GI50: 2.65 µM (inactive)
RPMI-8226
  GI50: 1.9 µM (inactive)
SF-268
  GI50: 0.966 µM (active)
SK-MEL-28
  GI50: 7.69 µM (inactive)
SK-MEL-5
  GI50: 1.07 µM (active)
SNB-75
  GI50: 10 µM (inactive)
UACC-257
  GI50: 0.614 µM (active)
UO-31
  GI50: 11.1 µM (inactive)

— ChEMBL document CHEMBL1201862, “PubChem BioAssay data set” (2004)
